Test results from US4794183A, “Certain tetrahydro-furan or pyran phosphate-ethylene or propylene ammonium derivatives” (Sankyo Company Limited, priority 1985, dated 1988).
Like-named read-outs stand apart in the source and are kept apart here.

Key:
[1] = system: sarcoma 180; experiment: Anti-tumor effect, survival of mice transplanted intraperitoneally with sarcoma 180 ascites cells; type: in vivo, mice (ICR/Jcl strain, female); settings: for ILS (increase in lifespan) / No. surviving after 60 days: single dose, intraperitoneal; for ILS (increase in lifespan): (Tt-Tc) as percentage of Tc; for No. surviving after 60 days: survivors/number in test group; for mice kept alive at the end of 60 days: text summary of Table 8, dose not stated
Method: The test animals used were 8 week old female mice of the ICR/Jcl strain and were employed in groups of 5 mice for each test. Into each mouse were transplanted intraperitoneally 1×10^5 ascites cells of sarcoma 180. The day after transplantation, the test compound, dissolved in sterilized physiological saline, was administered in a single dose (in the amount shown in the following Table 8) intraperitoneally to the animals. A control group was given an intraperitoneal administration of sterilized physiological saline without any active compound. The results are reported in the following Table 8 as follows: Tt /Tc, where Tt is the mean survival time (in days) of the mice of a test group (i.e. to which one of the test compound was administered) and Tc is the mean survival time (in days) of the control group; ILS (%), i.e. the increase in lifespan, which is calculated as (Tt -Tc) expressed as a percentage of Tc; and number surviving after 60 days, in which the first number is the number of animals surviving, and the second number is the number in the test group.

[2] = system: rabbits' platelet-rich plasma; experiment: Platelet aggregating activity using rabbits' platelet-rich plasma (method of Born et al.); type: cell-based, rabbit; settings: Oryctolagus cuniculus, read-out: Platelet aggregating effect (EC50)
Method: The platelet aggregating activity of the compounds of the invention using rabbits' platelet-rich plasma was examined by the method of Born et al. [Born et al., J. Physiol., 162, 67-68 (1962)]. The EC50 values were calculated. As in Experiment 2, C16 PAF was used as a reference.

[3] = rabbits' platelet-rich plasma, C16 PAF as reference

SMILES | ILS (increase in lifespan) ([1]; 5 mg/kg) [%] | No. surviving after 60 days ([1]; 5 mg/kg) | mice kept alive at the end of 60 days [1] | EC50 [2, 3] [µM] | ILS (increase in lifespan) ([1]; 20 mg/kg) [%] | No. surviving after 60 days ([1]; 20 mg/kg) | ILS (increase in lifespan) ([1]; 10 mg/kg) [%] | No. surviving after 60 days ([1]; 10 mg/kg) | EC50 ([2]; Platelet) [µM]
CCCCCCCCCCCCCCCCOC[C@H]1OCC[C@@H]1OP(=O)([O-])OCC[N+](C)(C)C (relative stereo) [Example 5, dl-(trans-2-Hexadecyloxymethyltetrahydrofuran-3-yl) 2-(trimethylammonio)ethyl phosphate] | 157 | 2/5 | 2 of the 5 | > 100 | – | – | – | – | –
CCCCCCCCCCCCCCCCOC[C@H]1OCCC[C@@H]1OP(=O)([O-])OCC[n+]1ccccc1 (relative stereo) [Example 6, dl-(trans-2-Hexadecyloxymethyltetrahydropyran-3-yl) 2-pyridinioethyl phosphate] | – | – | – | – | 155 | 0/5 | – | – | –
CCCCCCCCCCCCCCCCO[C@@H]1CCCO[C@H]1COP(=O)([O-])OCC[N+](C)(C)C (relative stereo) [Example 3, dl-(trans-3-Hexadecyloxytetrahydropyran-2-yl)methyl 2-(trimethylammonio)ethyl phosphate] | – | – | – | > 400 | – | – | 127 | 1/5 | –
CCCCCCCCCCCCCCCCOC[C@H]1OCCC[C@@H]1OP(=O)([O-])OCC[N+](C)(C)C (relative stereo) [Example 1, dl-(trans-2-Hexadecyloxymethyltetrahydropyran-3-yl) 2-(trimethylammonio)ethyl phosphate] | 169 | 2/5 | 2 of the 5 | > 100 | – | – | 136 | 1/5 | –
CCCCCCCCCCCCCCCCOCC(COP(=O)([O-])OCC[N+](C)(C)C)OC(C)=O (stereo not shown) [C16 PAF, reference compound] | – | – | – | – | – | – | – | – | 0.009
